Like-named read-outs stand apart in the source and are kept apart here.
What was measured:
Diabrotica balteata = test: Transovarial effects on Diabrotica balteata adults fed on sprayed bean plants (% egg mortality); assay type: in vivo; details: for mortality at 10 ppm / mortality at 25 ppm / mortality at 50 ppm: Diabrotica balteata; for Transovarial effects on treated adults of Diabrotica balteata: at the used dose rates
Method: The following IGRs in Table 1 were tested for their transovarial effects on Diabrotica balteata by observing percentage egg mortality.
Bean plants (Phaseolus vulgaris, var. Amata) were treated in an automatic spray chamber (ARO-1) with around 500 l/ha. After drying of the spray deposits, plants were placed in gauze cages and infested with newly hatched (0-24 h old) Diabrotica balteata adults. After seven days, treated plants were removed and replaced by non-treated plants. From day seven to day 38 eggs were collected in three-day intervals, counted and checked on number of hatched larvae (% egg mortality). Percentage egg mortality was calculated as the number of unhatched eggs per total number of eggs laid.

Spodoptera frugiperda = test: Foliar spray application on cotton, larval mortality of Spodoptera frugiperda; assay type: in vivo; details: 4 DAT (days after treatment)
Excerpt: For example on both Spodoptera frugiperda and Plutella xylostella similar activities were obtained for the same rates: […]

[1] = egg laying period 1, read-out: % egg mortality: on egg laying period 1
[2] = egg laying period 2, read-out: % egg mortality: on egg laying period 2
[3] = egg laying period 3, read-out: % egg mortality: on egg laying period 3
[4] = egg laying period 4, read-out: % egg mortality: on egg laying period 4
[5] = egg laying period 5, read-out: % egg mortality: on egg laying period 5
[6] = egg laying period 6, read-out: % egg mortality: on egg laying period 6
[7] = egg laying period 7, read-out: % egg mortality: on egg laying period 7
[8] = egg laying period 8, read-out: % egg mortality: on egg laying period 8

Compound | mortality at 10 ppm (Diabrotica balteata; [1]) | mortality at 10 ppm (Diabrotica balteata; [2]) | mortality at 10 ppm (Diabrotica balteata; [3]) | mortality at 10 ppm (Diabrotica balteata; [4]) | mortality at 10 ppm (Diabrotica balteata; [5]) | mortality at 10 ppm (Diabrotica balteata; [6]) | mortality at 25 ppm (Diabrotica balteata; [1]) | mortality at 25 ppm (Diabrotica balteata; [2]) | mortality at 25 ppm (Diabrotica balteata; [3]) | mortality at 25 ppm (Diabrotica balteata; [4]) | mortality at 25 ppm (Diabrotica balteata; [6]) | mortality at 50 ppm (Diabrotica balteata; [2]) | mortality at 50 ppm (Diabrotica balteata; [3]) | mortality at 50 ppm (Diabrotica balteata; [4]) | mortality at 50 ppm (Diabrotica balteata; [5]) | mortality at 50 ppm (Diabrotica balteata; [6]) | mortality at 50 ppm (Diabrotica balteata; [7]) | Spray interval (Diabrotica balteata; Rate 12.5 g AI/ha) | Spray interval (Diabrotica balteata; Rate 25 g AI/ha) | Transovarial effects on treated adults of Diabrotica balteata (Diabrotica balteata) | further results
O=C(NC(=O)c1c(F)cccc1F)Nc1ccc(Oc2ccc(C(F)(F)F)cc2Cl)cc1F [Cascade, Flufenoxuron] | 69% | 22% | 91% | 10% | 9% | 8% | 100% | 100% | 98% | 64% | 14% | 100% | 100% | 64% | 13% | 6% | 11% | 7 days | 7 days | Transovarial effects can be observed | mortality at 10 ppm (Diabrotica balteata; [7]): 8%; mortality at 10 ppm (Diabrotica balteata; [8]): 8%; mortality at 25 ppm (Diabrotica balteata; [7]): 9%; mortality at 50 ppm (Diabrotica balteata; [8]): 9%; Spray interval (Diabrotica balteata; Rate 5 g AI/ha): 7 days
O=C(NC(=O)c1c(F)cccc1F)Nc1cc(Cl)c(OC(F)(F)C(F)F)c(Cl)c1 [Consult, Hexaflumuron] | 75% | 36% | 7% | 8% | 9% | 10% | 97% | 93% | 15% | 11% | 11% | 92% | 15% | 22% | 48% | 15% | – | 5 days | 5 days | Transovarial effects can be observed | Spray interval (days) (Diabrotica balteata; Rate 5 g AI/ha): Insufficient
O=C(NC(=O)c1c(F)cccc1F)Nc1ccc(Cl)cc1 [Dimilin, Diflubenzuron] | 0% | 11% | 6% | 10% | 9% | 12% | 0% | 7% | 5% | 5% | 10% | 16% | 3% | 5% | 7% | 7% | 8% | – | – | transovarially inactive | –
COc1cccc(C(=O)NN(C(=O)c2cc(C)cc(C)c2)C(C)(C)C)c1C [Intrepid, Methoxyfenozide] | 7% | 8% | 9% | 7% | – | – | 13% | 13% | 7% | 11% | – | 14% | 10% | 9% | – | – | – | – | – | transovarially inactive | –
O=C(NC(=O)c1c(F)cccc1F)Nc1cc(Cl)c(OC(F)(F)C(F)C(F)(F)F)cc1Cl (stereo not shown) [Match, Lufenuron] | 100% | 100% | 73% | 17% | 8% | 9% | 100% | 100% | 85% | 15% | 8% | 100% | 96% | 50% | 40% | 9% | 8% | 7 days | 7 days | Transovarial effects can be observed | total number of sterilised (unhatched) eggs, considered over the whole test period (Diabrotica balteata; 5 g AI ha^-1): ~20%; total number of sterilised (unhatched) eggs, considered over the whole test period (Diabrotica balteata; 12.5 g AI ha^-1): ≈ 25%; total number of sterilised (unhatched) eggs, considered over the whole test period (Diabrotica balteata; 25 g AI ha^-1): ≈ 25%; mortality at 10 ppm (Diabrotica balteata; [7]): 12%; mortality at 10 ppm (Diabrotica balteata; [8]): 8%; mortality at 25 ppm (Diabrotica balteata; [7]): 9%; mortality at 50 ppm (Diabrotica balteata; [8]): 8%; Spray interval (Diabrotica balteata; Rate 5 g AI/ha): 5 days; LC50 (Spodoptera frugiperda): LC50 = 1 ppm
CCc1ccc(C(=O)NN(C(=O)c2cc(C)cc(C)c2)C(C)(C)C)cc1 [Mimic, Tebufenozide] | 7% | 9% | 8% | 11% | – | – | 9% | 13% | 9% | 10% | – | 10% | 10% | 13% | – | – | – | – | – | transovarially inactive | –
O=C(NC(=O)c1c(F)cccc1F)Nc1cc(Cl)c(F)c(Cl)c1F [Nomolt, Teflubenzuron] | 40% | 15% | 7% | 11% | 8% | 14% | 76% | 48% | 34% | 11% | 13% | 67% | 14% | 11% | 13% | 10% | – | – | 3 days | Transovarial effects can be observed | Spray interval (days) (Diabrotica balteata; Rate 5 g AI/ha): Insufficient; Spray interval (days) (Diabrotica balteata; Rate 12.5 g AI/ha): Insufficient
